Key:
[1] = Log P by RP-HPLC (HPLC-PDA), extrapolation of Log k to 0% MeOH; format: physicochemical; conditions: for Log k / Retention factor (k): RP-C18
Protocol: For each compound, the retention time was reported at different percentages of mobile phases (Table 1). See Materials and Methods and Supplementary Materials for the detailed procedures. (1) k= tR− tM/tM where tR is the retention time of the sample and tM is the retention time of blank (methanol).
Stock solutions of each compound were prepared as follow: 1 mg of the synthesized compound and RSV (control) was weighted and dissolved in 1 mL of dimethyl sulfoxide (DMSO). The working solutions were prepared in methanol at 100 µg/mL. 20 µL of working solutions was injected in HPLC system without pre-treatment.
The HPLC analyses for all new compounds were carried out in isocratic conditions with Milli-Q Water (18.2 MΩ-cm at 25 °C) as solvent A and MeOH as solvent B in different percentages reported in […]. RP-C18 stationary phase (LiChrosorb C18, 150 × 4.6 mm, 5 µm) column was used. All compounds were detected at their maximum wavelength: 322 nm for 1, 301 nm for 2, 324 nm for 3, 324 nm for 4, 373 nm for 5, 322 nm for 6, 320 nm for 7, whereas RSV was detected at 306 nm. The total run time was kept until sample elution.

C2C12 cells [2] = assay: MTT assay, cell vitality/proliferation; format: cell-based, mouse
Protocol: The oxidative stress plays one of the key roles in cell’s life path. For these reasons, to evaluate the possible cytotoxic effects of compounds 1–7 and their effect on the cell proliferative capacity and to define a suitable concentration range, all the new synthesized compounds 1–7 were evaluated for their cytotoxic activity at three different concentrations (1, 10 and 100 μM) via standard MTT assay, using C2C12 cell line (Figure 3). Due to well-known antioxidant and neurodegenerative senescence prevention abilities in addition to enhancing the beneficial effects of physical exercise on the skeletal muscles of the elderly, RSV was used as reference compound [54, 55]. […] For this reason, we performed the same assay also at 48 h for the compounds 5, 6 and RSV (Figure 4).
Prompted by the results obtained for compound 6 as a scavenge ROS due the presence of halogenated groups, we used the widely C2C12 mouse cells as a myogenic model, to study its antioxidant effects following both the evaluation of superoxide anion radical concentration and chemical insults, such as from H2O2. C2C12 cells (CRL 1772; American Type Culture Collection, Rockville, MD, USA) were grown in Dulbecco’s modified Eagle’s medium (DMEM; Euroclone, Pero, Italy) containing 20% foetal bovine serum (Euroclone), […] L-glutamine (Euroclone) and 100 IU mL^−1 penicillin and 100 μg mL^−1 streptomycin (Euroclone). The cells were maintained at 37 °C in a 5% CO2 humidified atmosphere.
Cellular proliferation was tested using a colorimetric assay of 3-[4,5-dimethylthiazol-2-yl]-2,5-diphenyltetrazolium bromide (MTT). We seeded 2000 cells/well in a final volume of 200 μL growth medium in 96-well plates. After 24 h the cells were stimulated with or w/o the newly synthesized compounds for 24 h, or, where indicated, for 48 h. We tested seven new synthesized compounds together with RSV reference at different concentration (1, 10, 100 μM). All compounds were dissolved in DMSO and the experimental dilutions used were made using cellular growth medium. For this reason, the cells were also incubated for 24 h with the DMSO at the same concentration used for the compounds. Incubation was terminated by adding 20 μL of MTT solution (5 mg mL^−1 in phosphate-buffered saline (PBS)) to each well, followed by incubation at 37 °C for 3 h in the dark. After, the plates were centrifuged at 2000 rpm for 15 min. The supernatant was removed, 200 μL dimethylsulfoxide (DMSO) was added to each well, and the plates were incubated for 30 min at 37 °C in the dark. Finally, the plates were read at 540 nm on a scanning multi-well spectrophotometer (Cary50MPR, Varian, Santa Clara, CA, USA).

C2C12 cells [3] = assay: NBT assay, superoxide anion detection; format: cell-based, mouse; conditions: C2C12, 24 h incubation, 1 and 10 μM
Protocol: At first, the antioxidant effect of compound 6 was assessed by NBT assay (Figure 5). The NBT assay is based on the reduction of NBT into formazan by superoxide anion O2^-. […] The concentration of superoxide anion radical in the cells was determined by spectrophotometric method and is based on the reduction of Nitro blue tetrazolium chloride to Nitro blue-formazan in the presence of O2^-.
Since that during aging, among the ROS there are radicals as superoxide anion that can levels increase, [32] we used NBT assay in order to evaluate the antioxidant capacity of compound 6. C2C12 cells (10^6 cells) were stimulated with or w/o the compound 6 at 1 and 10 μM together with the RSV for 24 h, harvested, centrifuged for 5 min at 1200 rpm and resuspended in 1 mL 0.9% NaCl in which NBT (Nitro blue tetrazolium chloride) is dissolved 1 mg/mL. The cells were incubated for 3 h at 37 °C, centrifuged (for 10 min at 1200 rpm), resuspended in 1 mL DMSO and left 20’ in 37 °C. For the assay, the cells were plated in a 96 well plate (2 × 10^5 cell/well) and read by spectrophotometer at 550 nm on a scanning multi-well spectrophotometer (Cary50MPR, Varian, Santa Clara, CA, USA).

C2C12 cells [4] = assay: H2DCFDA assay, intracellular ROS after H2O2 insult; format: cell-based, mouse; conditions: for ROS levels (H2DCFDA fluorescence): C2C12, 24 h pretreatment, 300 µM H2O2, compared to CTRL
Protocol: Indeed, the antioxidant activity of compound 6 was also evaluated using an H2DCFDA assay (Figure 6). This assay is one of the most widely used techniques for directly measuring the redox state of a cell. In order to accurately measure ROS and the cellular capability to counteract the H2O2 insult, we used cell-permeable fluorescent and chemiluminescent probes. The fluorescence intensity is proportional to the ROS levels within the cell cytosol and it is in inverse relation to the antioxidant capacity of the cells themselves. The ability to restore the basal level of fluorescence are reported in Figure 6, after 0.5 and 10 min following oxidant stimulus.
Intracellular ROS were quantified by the 2′,7′-dichlorodihydrofluorescein diacetate (H2DCF-DA Cat. No. D6883; Sigma). C2C12 cells were plated (2000 cells/well) into special optics 96-well plates (Corning-Costar, New York, NY, USA) and the cells were treated with RSV at 1 µM and Compound 6 at 1 and 10 µM for 24 h. After the incubation, cells were washed with an imaging buffer and treated with 300 µM H2O2 for an immediate fluorescence measurement. Plates were read every 50 s from 0 to 10 min for kinetic data analysis using a microplate reader (Synergy H1, BioTek), with excitation and emission wavelengths at 490 nm and 520 nm, respectively, and analyzed by Gen 5 version 2.08 (BioTek).

[5] = cited from earlier work
[6] = Log P estimated by RP-HPLC, extrapolated to 0% MeOH, SD at 95% confidence interval

Row | SMILES | Log k ([1]; 60% MeOH) | Retention factor (k) ([1]; 60% MeOH) | Log k ([1]; 65% MeOH) | Retention factor (k) ([1]; 65% MeOH) | Log k ([1]; 70% MeOH) | Retention factor (k) ([1]; 70% MeOH) | Log k ([1]; 75% MeOH) | Retention factor (k) ([1]; 75% MeOH) | Log k ([1]; 80% MeOH) | Retention factor (k) ([1]; 80% MeOH) | chromatographic logP [1, 6] | melting point | cell vitality (MTT reduction) (C2C12 cells [2]; C2C12, 48 h, 1 and 10 μM) | other results
1 | Oc1ccc(/C=C/c2ccc(Cl)cc2)cc1 [Compound 1, 4-[(E)-2-(4-Chlorophenyl)vinyl]phenol] | 0.9828 | 9.6110 | 0.6845 | 4.8361 | 0.4010 | 2.5176 | 0.1330 | 1.3584 | −0.1255 | 0.7490 | 4.29 ± 0.07 | 184 to 185 °C | – | –
2 | Oc1ccc(/C=C/c2ccccc2)cc1Cl [Compound 2, 2-Chloro-4-[(E)-2-phenylvinyl]phenol] | 1.0560 | 11.3757 | 0.7826 | 6.0620 | 0.5049 | 3.1984 | 0.2243 | 1.6761 | 0.0216 | 1.0510 | 4.2 ± 0.12 | 126 to 127 °C | – | –
3 | Oc1ccc(/C=C/c2ccc(Cl)cc2Cl)cc1 [Compound 3, 4-[(E)-2-(2,4-Dichlorophenyl)vinyl]phenol] | 1.4819 | 30.3325 | – | – | 0.8936 | 7.8267 | 0.6070 | 4.0455 | 0.3308 | 2.1420 | 5.11 ± 0.07 | 119 to 120 °C | – | Log k ([1]; 50% MeOH): 2.1310; Retention factor (k) ([1]; 50% MeOH): 135.2173
4 | Oc1ccc(/C=C/c2ccc(Cl)cc2Cl)cc1Cl [Compound 4, 2-Chloro-4-[(E)-2-(2,4-dichlorophenyl)vinyl] phenol] | 1.7713 | 59.0580 | 1.4456 | 27.8973 | 1.1149 | 13.0290 | 0.7826 | 6.0620 | 0.5423 | 3.4855 | > 5 | 135 to 136 °C | – | Log P * ± SD [1, 6]: 5.50 ± 0.14
5 | O=[N+]([O-])c1ccc(/C=C/c2ccc(O)c(Cl)c2)cc1 [Compound 5] | 0.9974 | 9.9412 | 0.7161 | 5.2008 | 0.4442 | 2.7812 | 0.1536 | 1.4243 | −0.0669 | 0.8573 | 4.22 ± 0.09 | – | non-significant dose-dependent decrease of vitality | –
6 | Oc1ccc(/C=C/c2ccc(C(F)(F)F)cc2)cc1Cl [Compound 6, 2-Chloro-4-{(E)-2-[4-(trifluoromethyl)phenyl]vinyl}phenol] | 1.4227 | 26.4651 | 1.0820 | 12.0776 | 0.7645 | 5.8149 | 0.4605 | 2.8871 | 0.1498 | 1.4118 | 5.21 ± 0.06 | 117 to 118.4 °C | enhanced vitality | cell vitality (MTT reduction) (C2C12 cells [2]; C2C12, 24 h, 100 μM): drastically reduced the vitality; cell vitality (MTT reduction) (C2C12 cells [2]; C2C12, 24 h, 1 and 10 μM): significant increase of the cell vitality; cell vitality (MTT reduction) (C2C12 cells [2]; C2C12, 48 h, 1 μM): moderate effect; cell vitality (MTT reduction) (C2C12 cells [2]; C2C12, 48 h, 10 μM): higher effect; O2- levels (NBT assay) (C2C12 cells [3]): significant decrease of O2^- levels; antioxidant capacity with respect to RSV (C2C12 cells [4]; C2C12, 10 μM, 300 µM H2O2): significantly higher antioxidant capacity; oxidant insult by H2O2 (H2DCFDA fluorescence) (C2C12 cells [4]; C2C12, 10 μM, 24 h pretreatment, 300 µM H2O2, stable throughout time-course): strongly counteracted; ROS levels (H2DCFDA fluorescence) (C2C12 cells [4]): reduce the ROS levels
7 | Oc1ccc(/C=C/c2ccc(C(F)(F)F)cc2)cc1 [Compound 7, 4-{(E)-2-[4-(Trifluoromethyl)phenyl]vinyl}phenol] | 1.1515 | 14.1757 | 0.8368 | 6.8682 | 0.5372 | 3.4447 | 0.2568 | 1.8063 | −0.0429 | 0.9059 | 4.7 ± 0.05 | 161 to 163 °C | – | –
8 | Oc1ccc(/C=C/c2cc(O)cc(O)c2)cc1 [RSV, 3,5,4′-trihydroxy-trans-stilbene, reference compound] | – | – | – | – | – | – | – | – | – | – | 2.47 ± 0.11 | – | did not change the effects respect to the control | ROS levels (H2DCFDA fluorescence) (C2C12 cells [4]): reduce the ROS levels; Log k ([1]; 20% MeOH): 1.6477; Retention factor (k) ([1]; 20% MeOH): 44.4282; Log k ([1]; 25% MeOH): 1.3573; Retention factor (k) ([1]; 25% MeOH): 22.7655; Log k ([1]; 30% MeOH): 1.0693; Retention factor (k) ([1]; 30% MeOH): 11.7294; Log k ([1]; 40% MeOH): 0.5493; Retention factor (k) ([1]; 40% MeOH): 3.5427; Log k ([1]; 50% MeOH): 0.0010; Retention factor (k) ([1]; 50% MeOH): 1.0024; bioavailability [5]: less than 1%; oral bioavailability ([5]; in vivo): almost zero

Source: paper PMC7731283, “Synthesis and Biological Evaluation of Halogenated E-Stilbenols as Promising Antiaging Agents” (Molecules, 2020)
